Here are results for twelve compounds from patent US9907847B2, “Pyrrolopyrimidines as therapeutic agents for the treatment of diseases” (GlaxoSmithKline LLC, priority 2012, dated 2018).

One assay concerns IFN-α. The experiment in a line: Induction of interferon-α using fresh human whole blood (WB). The class given is cell-based. To be noted: three donors, overnight incubation, response as % of 2 μM resiquimod control, read-out: mean pEC50 for IFN-α (converted). The protocol: (§1) Assay for the Induction of Interferon-[…] and TNF-[…] Using Fresh Human Whole Blood (WB)
(§2) Compounds were prepared at 100× required concentration in DMSO in flat-bottom microtitre plates at a volume of 1.5 μL. Columns 1-10 contained a 1 in 4 serial dilution of the test compound. Included on each plate was a serial dilution of the TLR7/8 agonist resiquimod as a standard and Column 11 contained 1.5 μl of 200 μM resiquimod (giving a 2 μM final concentration, used to define the approximate maximal response to resiquimod). Each compound was assayed in duplicate for each donor.
(§3) Blood samples from three human donors were collected into sodium heparin (10 U/ml). 150 μl of whole Blood was dispensed into Col 1 to 11 of assay plates containing 1.5 μl of test compound or standard in DMSO. Plates were placed in an incubator overnight (37° C., 95% air, 5% CO2). Following the overnight incubation, plates were removed from the incubator & mixed on an orbital shaker for approximately 1 minute. 100 μl of 0.9% saline was added to each well and the plates mixed again on an orbital shaker. Plates were then centrifuged (2500 rpm, 10 mins), after which a sample of plasma was removed using a Biomek FX and assayed for both IFN-α and TNF-α using the MSD (Mesoscale Discovery) electrochemiluminescence assay platform. The IFN-α assay was carried out similarly to that described above. The TNF-α assay was carried out as per kit instructions (Cat No K111BHB).
(§4) Cytokine released was expressed as a percentage of the 2 μM resiquimod control (column 11). This percentage was plotted against compound concentration and the pEC50 for the response determined by non-linear least squares curve fitting. For the IFN-α responses, generally a 4 parameter logistic model was selected. For the TNF-α responses where a clear maximum response was obtained (i.e. a well defined plateau in the response was observed) then a 4 parameter model was generally used. If the upper asymptote of the curve wasn't well defined then the curve fitting was generally constrained to a maximal response of 100% (i.e. to the response to 2 μM resiquimod) or to the response of the highest concentration tested if this was greater than the resiquimod response. Some curves were bell shaped for one or both cytokines and the cytokine data on the down slope of the bell shaped response (i.e. concentrations above those giving the maximal response) were generally excluded from the fit, usually with the exception of the concentration immediately above the peak response. Curve fitting thus concentrated on the up slope of the dose response curve.

Another assay concerns TNF-α. The experiment in a line: Induction of TNF-α using fresh human whole blood (WB). The class given is cell-based. To be noted: three donors, overnight incubation, response as % of 2 μM resiquimod control, read-out: mean pEC50 for TNF-α (converted). As for the experimental part:
as §1, §2, §3, §4

Structures are written as SMILES. Where a name gives a salt, the structure may show the parent alone. Some results are limits rather than exact numbers.

Regarding `CCCCc1nc(N)c2[nH]cc(CCCCCN3CC[C@@H](F)C3)c2n1` [Example 24, (R)-2-Butyl-7-(5-(3-fluoropyrrolidin-1-yl)pentyl)-5H-pyrrolo[3,2-d]pyrimidin-4-amine], the EC50 was no more than 5.01 µM in the assay with IFN-α and no less than 5.01 µM with TNF-α.

On to `CCCCc1nc(N)c2[nH]c(C)c(CCCCN3CCCCCC3)c2n1` [Example 13, 7-(4-(Azepan-1-yl)butyl)-2-butyl-6-methyl-5H-pyrrolo[3,2-d]pyrimidin-4-amine], for which the EC50 with IFN-α is no more than 5.01 µM; in the assay with TNF-α, no less than 5.01 µM.

For the compound `CCCCc1nc(N)c2[nH]cc(CCCCCN3CC(O)C3)c2n1` [Example 29, 1-(5-(4-Amino-2-butyl-5H-pyrrolo[3,2-d]pyrimidin-7-yl)pentyl)azetidin-3-ol formate], the EC50 was no more than 5.01 µM in the assay on IFN-α and no less than 5.01 µM in the assay on TNF-α.

As for `COCCc1nc(N)c2[nH]cc(CCCCCCN3CCCCC3)c2n1` [Example 5, 2-(2-Methoxyethyl)-7-(6-(piperidin-1-yl)hexyl)-5H-pyrrolo[3,2-d]pyrimidin-4-amine hydrochloride], the EC50 in the assay with IFN-α is no more than 5.01 µM; in the assay on TNF-α, no less than 5.01 µM.

Regarding `CCCCc1nc(N)c2[nH]cc(CCCCCN3CCC(F)(F)CC3)c2n1` [Example 20, 2-Butyl-7-(5-(4,4-difluoropiperidin-1-yl)pentyl)-5H-pyrrolo[3,2-d]pyrimidin-4-amine], the EC50 is no more than 5.01 µM with IFN-α and no less than 5.01 µM in the assay with TNF-α.

Consider `CCCCc1nc(N)c2[nH]c(C)c(CCCCCN3CCCCC3)c2n1` [Example 7, 2-Butyl-6-methyl-7-(5-(piperidin-1-yl)pentyl)-5H-pyrrolo[3,2-d]pyrimidin-4-amine], for which the EC50 in the assay with IFN-α is no more than 5.01 µM; in the assay on TNF-α it was no less than 5.01 µM.

In the case of `CCCCc1nc(N)c2[nH]c(C)c(CCCCCN3CCC(F)CC3)c2n1` [Example 39, 2-Butyl-7-(5-(4-fluoropiperidin-1-yl)pentyl)-6-methyl-5H-pyrrolo[3,2-d]pyrimidin-4-amine], the EC50 is no more than 5.01 µM in the assay on IFN-α and no less than 5.01 µM with TNF-α.

For the compound `COCCc1nc(N)c2[nH]cc(CCCCCN3CC[C@@H](F)C3)c2n1` [Example 26, (R)-7-(5-(3-Fluoropyrrolidin-1-yl)pentyl)-2-(2-methoxyethyl)-5H-pyrrolo[3,2-d]pyrimidin-4-amine formate], the EC50 in the assay on IFN-α was no more than 5.01 µM; in the assay with TNF-α it was no less than 5.01 µM.

For `CCCCc1nc(N)c2[nH]c(C)c(CCCCCCN3CCCCC3)c2n1` [Example 6, 2-Butyl-6-methyl-7-(6-(piperidin-1-yl)hexyl)-5H-pyrrolo[3,2-d]pyrimidin-4-amine], the figures for the EC50 with IFN-α and in the assay on TNF-α were no more than 5.01 µM and no less than 5.01 µM, respectively.

Turning to `CCCCc1nc(N)c2[nH]cc(CCCCCN3CC[C@H](F)C3)c2n1` [Example 25, (S)-2-Butyl-7-(5-(3-fluoropyrrolidin-1-yl)pentyl)-5H-pyrrolo[3,2-d]pyrimidin-4-amine], the values for the EC50 with IFN-α and with TNF-α were no more than 5.01 µM and no less than 5.01 µM, respectively.

Consider `CCCCc1nc(N)c2[nH]cc(CCCCCN3CCC(F)CC3)c2n1` [Example 21, 2-Butyl-7-(5-(4-fluoropiperidin-1-yl)pentyl)-5H-pyrrolo[3,2-d]pyrimidin-4-amine], for which the EC50 is no more than 5.01 µM in the assay on IFN-α and no less than 5.01 µM with TNF-α.

On to `CCCCc1nc(N)c2[nH]c(C)c(CCCCCN3CCCC3)c2n1` [Example 16, 2-Butyl-6-methyl-7-(5-(pyrrolidin-1-yl)pentyl)-5H-pyrrolo[3,2-d]pyrimidin-4-amine], for which the EC50 with IFN-α is no more than 5.01 µM; with TNF-α it was no less than 5.01 µM.
